Data from patent publication US11168073B2, “3,3-difluoroallylamines or salts thereof and pharmaceutical compositions comprising the same” (YUHAN CORPORATION, priority 2018, dated 2021).
Where a name gives a salt, the structure may show the parent alone.

Key:
Format in all cases: biochemical
recombinant human VAP-1 = molecular target: T1, recombinant human VAP-1 (Homo sapiens, UniProt Q16853); test: Activity evaluation on recombinant human VAP-1 (Amplex Red/HRP-coupled hydrogen peroxide assay, benzylamine substrate); conditions: recombinant human VAP-1, benzylamine substrate; read-out: Inhibitory Activity (IC50, nM) human VAP-1
T1 construct: purchased R&D systems
T1 sequence (Q16853 1-763): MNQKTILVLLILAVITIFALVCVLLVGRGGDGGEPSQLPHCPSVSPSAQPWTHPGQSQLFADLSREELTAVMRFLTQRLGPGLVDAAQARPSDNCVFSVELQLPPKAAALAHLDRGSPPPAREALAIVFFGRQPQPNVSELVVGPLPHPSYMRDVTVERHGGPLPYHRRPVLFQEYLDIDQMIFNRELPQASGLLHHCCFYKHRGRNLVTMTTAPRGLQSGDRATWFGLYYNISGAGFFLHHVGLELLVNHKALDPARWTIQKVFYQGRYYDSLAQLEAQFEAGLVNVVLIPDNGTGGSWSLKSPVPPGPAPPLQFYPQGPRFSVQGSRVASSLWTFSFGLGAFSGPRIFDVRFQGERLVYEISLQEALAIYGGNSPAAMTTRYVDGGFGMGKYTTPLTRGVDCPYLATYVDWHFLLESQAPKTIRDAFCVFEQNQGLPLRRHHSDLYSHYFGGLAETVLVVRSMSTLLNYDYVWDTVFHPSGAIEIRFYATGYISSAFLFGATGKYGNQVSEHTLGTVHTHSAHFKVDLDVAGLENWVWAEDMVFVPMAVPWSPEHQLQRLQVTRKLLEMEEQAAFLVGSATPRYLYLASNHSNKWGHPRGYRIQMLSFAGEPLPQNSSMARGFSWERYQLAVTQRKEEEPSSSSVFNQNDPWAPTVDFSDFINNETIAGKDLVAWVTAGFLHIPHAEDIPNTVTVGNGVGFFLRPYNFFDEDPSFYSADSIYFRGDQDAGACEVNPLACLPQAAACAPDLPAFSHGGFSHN
Procedure, shortened: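 Hydrogen peroxide from benzylamine (1 mM) oxidation by human recombinant VAP-1 detected via HRP-coupled Amplex Red (200 uM) fluorescence, kinetic over 1–2 h. Enzyme and compound preincubated 30 min at 37 °C, pH 7.4 phosphate; 8-point dose response, signal-rate decrease versus DMSO control fitted to four-parameter logistic for IC50.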

[1] = molecular target: T2, recombinant human MAO-A (monoamine oxidase-A) (Homo sapiens, UniProt P21397); test: Activity evaluation on recombinant human MAO-A (Amplex Red/HRP-coupled assay, 0.5 mM tyramine substrate); conditions: 0.5 mM tyramine substrate, read-out: Inhibitory Activity (IC50, nM) MAO-A
T2 construct: purchased Sigma-Aldrich
T2 sequence (P21397 1-527): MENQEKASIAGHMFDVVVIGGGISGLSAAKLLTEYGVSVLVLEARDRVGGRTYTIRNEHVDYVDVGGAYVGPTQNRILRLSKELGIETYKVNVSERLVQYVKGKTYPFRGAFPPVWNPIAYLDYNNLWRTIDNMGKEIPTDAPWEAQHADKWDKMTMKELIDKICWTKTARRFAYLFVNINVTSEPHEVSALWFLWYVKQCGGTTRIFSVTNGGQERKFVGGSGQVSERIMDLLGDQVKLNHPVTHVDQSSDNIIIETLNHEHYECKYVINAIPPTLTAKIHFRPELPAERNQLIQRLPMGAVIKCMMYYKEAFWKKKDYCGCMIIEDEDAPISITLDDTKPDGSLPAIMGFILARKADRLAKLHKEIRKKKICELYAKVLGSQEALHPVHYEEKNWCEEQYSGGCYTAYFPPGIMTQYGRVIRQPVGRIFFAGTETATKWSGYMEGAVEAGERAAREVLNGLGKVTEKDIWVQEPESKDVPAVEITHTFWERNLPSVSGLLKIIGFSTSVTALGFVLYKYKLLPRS
Procedure, shortened: (§1)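 Each oxidase is tested with its own substrate: MAO-A with 0.5 mM tyramine, MAO-B with 1 mM benzylamine, DAO with 1 mM putrescine. After 30 min enzyme-compound preincubation at 37 °C, Amplex Red (200 uM) plus HRP (1 U/mL) reports H2O2 as fluorescence; IC50 is fitted from eight-point curves.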

[2] = molecular target: T3, recombinant human MAO-B (monoamine oxidase-B) (Homo sapiens, UniProt P27338); test: Activity evaluation on recombinant human MAO-B (Amplex Red/HRP-coupled assay, 1 mM benzylamine substrate); conditions: 1 mM benzylamine substrate, read-out: Inhibitory Activity (IC50, nM) MAO-B
T3 construct: purchased Sigma-Aldrich
T3 sequence (P27338 1-520): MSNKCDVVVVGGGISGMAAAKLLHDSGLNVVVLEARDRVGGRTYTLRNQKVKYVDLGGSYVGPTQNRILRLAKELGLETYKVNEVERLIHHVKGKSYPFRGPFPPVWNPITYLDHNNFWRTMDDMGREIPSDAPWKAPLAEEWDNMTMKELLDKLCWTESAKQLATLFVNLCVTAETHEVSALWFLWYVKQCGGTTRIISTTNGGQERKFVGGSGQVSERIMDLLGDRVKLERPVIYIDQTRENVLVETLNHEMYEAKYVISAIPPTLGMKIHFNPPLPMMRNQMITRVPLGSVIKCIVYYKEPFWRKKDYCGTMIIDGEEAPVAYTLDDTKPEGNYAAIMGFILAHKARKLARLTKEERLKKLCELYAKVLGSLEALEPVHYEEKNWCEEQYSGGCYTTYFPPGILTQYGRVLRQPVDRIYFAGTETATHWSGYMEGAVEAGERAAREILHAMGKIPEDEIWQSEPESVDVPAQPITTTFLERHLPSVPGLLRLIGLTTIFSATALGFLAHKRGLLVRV
Procedure, shortened: as §1

[3] = molecular target: T4, recombinant human DAO (diamine oxidase) (Homo sapiens, UniProt P19801); test: Activity evaluation on recombinant human DAO (Amplex Red/HRP-coupled assay, 1 mM putrescine substrate); conditions: 1 mM putrescine substrate, read-out: Inhibitory Activity (IC50, nM) DAO
T4 construct: purchased R&D systems
T4 sequence (P19801 20-751): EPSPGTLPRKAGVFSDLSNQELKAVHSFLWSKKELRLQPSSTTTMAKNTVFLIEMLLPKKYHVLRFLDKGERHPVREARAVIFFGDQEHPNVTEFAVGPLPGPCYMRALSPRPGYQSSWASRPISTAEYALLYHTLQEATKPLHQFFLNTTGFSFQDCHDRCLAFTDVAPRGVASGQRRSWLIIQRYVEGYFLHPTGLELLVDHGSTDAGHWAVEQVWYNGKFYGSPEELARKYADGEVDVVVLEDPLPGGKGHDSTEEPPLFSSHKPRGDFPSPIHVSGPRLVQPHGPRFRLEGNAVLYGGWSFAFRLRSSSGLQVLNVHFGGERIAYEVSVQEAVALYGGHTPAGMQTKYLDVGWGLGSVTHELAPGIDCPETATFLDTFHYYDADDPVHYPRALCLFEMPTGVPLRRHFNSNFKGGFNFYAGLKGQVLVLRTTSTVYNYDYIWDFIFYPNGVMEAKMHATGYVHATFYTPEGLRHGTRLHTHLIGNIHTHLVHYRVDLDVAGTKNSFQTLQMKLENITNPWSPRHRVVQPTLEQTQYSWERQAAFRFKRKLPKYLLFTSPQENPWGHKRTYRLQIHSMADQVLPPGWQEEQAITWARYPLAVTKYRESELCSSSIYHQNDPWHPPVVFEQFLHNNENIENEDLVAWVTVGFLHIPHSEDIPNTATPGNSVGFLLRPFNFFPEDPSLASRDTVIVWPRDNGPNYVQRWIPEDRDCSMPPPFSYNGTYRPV
Procedure, shortened: as §1

| SMILES | IC50 (recombinant human VAP-1) [nM] | IC50 [1] [nM] | IC50 [2] [nM] | IC50 [3] [nM] |
| --- | --- | --- | --- | --- |
| Cc1cc(C#Cc2ccc3c(c2)NCCO3)cnc1-n1cnn(CC(CN)=C(F)F)c1=O [Example 243, 2-[2-(aminomethyl)-3,3-difluoro-allyl]-4-[5-[2-(3,4-dihydro-2H-1,4-benzoxazin-6-yl)ethynyl]-3-methyl-2-pyridyl]-1,2,4-triazol-3-one Ditrifluoroacetate] | 0.9 | 32700 | 2200 | 4600 |
| Cc1cc(C#Cc2cnc3c(c2)NCCO3)cnc1-n1cnn(CC(CN)=C(F)F)c1=O [Example 244, 2-[2-(aminomethyl)-3,3-difluoro-allyl]-4-[5-[2-(2,3-dihydro-1H-pyrido[2,3-b][1,4]oxazin-7-yl)ethynyl]-3-methyl-2-pyridyl]-1,2,4-triazol-3-one ditrifluoroacetate] | 0.8 | > 100000 | 37000 | 9000 |
| Cc1cc(C#Cc2cnc3c(c2)OCCN3)cnc1-n1cnn(CC(CN)=C(F)F)c1=O [Example 245, 2-[2-(aminomethyl)-3,3-difluoro-allyl]-4-[5-[2-(3,4-dihydro-2H-pyrido[3,2-b][1,4]oxazin-7-yl)ethynyl]-3-methyl-2-pyridyl]-1,2,4-triazol-3-one ditrifluoroacetate] | 2.7 | > 100000 | 15000 | 14000 |
| Cc1cc(C#Cc2ccc3c(n2)OCCN3)cnc1-n1cnn(CC(CN)=C(F)F)c1=O [Example 246, 2-[2-(aminomethyl)-3,3-difluoro-allyl]-4-[5-[2-(2,3-dihydro-1H-pyrido[2,3-b][1,4]oxazin-6-yl)ethynyl]-3-methyl-2-pyridyl]-1,2,4-triazol-3-one ditrifluoroacetate] | 2.3 | > 100000 | 120000 | 59000 |
| Cc1cc(C#Cc2cnc3c(c2)NC(=O)CO3)cnc1-n1cnn(CC(CN)=C(F)F)c1=O [Example 247, 7-[2-[6-[1-[2-(aminomethyl)-3,3-difluoro-allyl]-5-oxo-1,2,4-triazol-4-yl]-5-methyl-3-pyridyl]ethynyl]-1H-pyrido[2,3-b][1,4]oxazin-2-one Trifluoroacetate] | 0.3 | > 100000 | > 100000 | 43000 |
| Cc1cc(C#Cc2cnc3c(c2)OCC(=O)N3)cnc1-n1cnn(CC(CN)=C(F)F)c1=O [Example 248, 7-[2-[6-[1-[2-(aminomethyl)-3,3-difluoro-allyl]-5-oxo-1,2,4-triazol-4-yl]-5-methyl-3-pyridyl]ethynyl]-4H-pyrido[3,2-b][1,4]oxazin-3-one trifluoroacetate] | 2.7 | > 100000 | 14000 | > 100000 |
| Cc1cc(C#Cc2ccc3c(c2)CCC(=O)N3)cnc1-n1cnn(CC(CN)=C(F)F)c1=O [Example 249, 6-[2-[6-[1-[2-(aminomethyl)-3,3-difluoro-allyl]-5-oxo-1,2,4-triazol-4-yl]-5-methyl-3-pyridyl]ethynyl]-3,4-dihydro-1H-quinolin-2-one Trifluoroacetate] | 0.9 | > 100000 | 3100 | 3900 |
| Cc1cc(-c2ccc3c(c2)CN(C)C(=O)N3)cnc1-n1cnn(CC(CN)=C(F)F)c1=O [Example 250, 6-[6-[1-[2-(aminomethyl)-3,3-difluoro-allyl]-5-oxo-1,2,4-triazol-4-yl]-5-methyl-3-pyridyl]-3-methyl-1,4-dihydroquinazolin-2-one Trifluoroacetate] | 0.2 | > 100000 | > 100000 | 4300 |
| Cc1cc(-c2cnn(C(F)F)c2)cnc1-n1cnn(CC(CN)=C(F)F)c1=O [Example 251, 2-[2-(aminomethyl)-3,3-difluoro-allyl]-4-[5-[1-(difluoromethyl)pyrazol-4-yl]-3-methyl-2-pyridyl]-1,2,4-triazol-3-one Trifluoroacetate] | 1.5 | > 100000 | 18000 | 19000 |
| Cc1cc(-c2cnn(C(C)C)c2)cnc1-n1cnn(CC(CN)=C(F)F)c1=O [Example 252, 2-[2-(aminomethyl)-3,3-difluoro-allyl]-4-[5-(1-isopropylpyrazol-4-yl)-3-methyl-2-pyridyl]-1,2,4-triazol-3-one Trifluoroacetate] | 1 | > 100000 | 35000 | 17000 |
| Cc1c(-c2ccc(S(C)(=O)=O)cc2)cccc1-n1cnn(CC(CN)=C(F)F)c1=O [Example 253, 2-[2-(aminomethyl)-3,3-difluoro-allyl]-4-[2-methyl-3-(4-methylsulfonylphenyl)phenyl]-1,2,4-triazol-3-one Trifluoroacetate] | 2.8 | > 100000 | > 100000 | 8700 |
| Cc1c(-c2ccc(N3CCNCC3)cc2)cccc1-n1cnn(CC(CN)=C(F)F)c1=O [Example 254, 2-[2-(aminomethyl)-3,3-difluoro-allyl]-4-[2-methyl-3-(4-piperazin-1-ylphenyl)phenyl]-1,2,4-triazol-3-one Ditrifluoroacetate] | 8 | > 100000 | > 100000 | > 100000 |
